Measurements taken from patent US20060258598A1, “Alpha-keto carbonyl calpain inhibitors” (priority 2003, published 2006).

Legend:
[1] = tested on: cellular calpains in C2C12 myoblasts; assay: Calpain inhibition assay in C2C12 myoblasts; assay type: cell-based; settings: 2 h incubation, calcium ionophore Br-A-23187, read-out: Calp I IC50 Myoblast
In short: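 Confluent C2C12 myoblasts in fusion medium (DMEM, 5% horse serum) exposed to compound for 2 h at 37 °C, then loaded with 400 μM Suc-Leu-Tyr-AMC for 20 min at room temperature in buffer with 4 mM CaCl2, HEPES pH 7.25. Calpains activated by Br-A-23187 ionophore (20 μM in added buffer); AMC fluorescence read each minute for 60 min at 37 °C to derive IC50.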

[2] = tested on: Primary fibroblasts from donors with Friedreich Ataxia (FRDA); assay: BSO assay (cell viability under BSO-induced oxidative stress); assay type: cell-based, human; settings: 24 h preincubation, 1 mM BSO; for EC50: Homo sapiens, Fibroblast
In short: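 FRDA patient primary fibroblasts were pretreated with compounds for 24 h, then exposed to 1 mM BSO (final) until toxicity appeared in BSO-only controls (typically 16–48 h). Viability was read by calcein AM (1.2 μM)/ethidium homodimer (4 μM) staining, 60 min RT, fluorescence 485/525 nm.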

20S Proteasome = biological target: T1, 20S Proteasome (Oryctolagus cuniculus, UniProt G1T4Q9); assay: 20S Proteasome assay; assay type: biochemical, Rabbit; settings: substrate Suc-Leu-Leu-Val-Tyr-AMC; read-out: 20S Prot IC50
T1 sequence (G1T4Q9 1-263): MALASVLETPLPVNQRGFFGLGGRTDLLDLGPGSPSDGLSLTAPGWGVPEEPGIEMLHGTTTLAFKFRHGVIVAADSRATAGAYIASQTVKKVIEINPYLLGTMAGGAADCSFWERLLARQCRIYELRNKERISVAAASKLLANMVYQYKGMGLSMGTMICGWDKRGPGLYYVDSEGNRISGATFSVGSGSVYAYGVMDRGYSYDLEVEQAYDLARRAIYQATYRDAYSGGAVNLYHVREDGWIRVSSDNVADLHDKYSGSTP
Description: 25 μl of a reaction buffer containing 400 μM of the fluorogenic substrate Suc-Leu-Leu-Val-Tyr-AMC (Bachem) are dispensed per well of a white microtiter plate. Test compounds dissolved in 0.5 μl DMSO are added. To start the reaction; 25 μl of reaction buffer containing 35 ng of enzyme (20S Proteasome, Rabbit, Calbiochem) are added. The increase in fluorescence (excitation at 360 nm; emission at 440 nm) is measured over 30 min at 30° C. at 30″. The IC50's are then determined from the slopes.

human μ-calpain = biological target: T2, human μ-calpain (Homo sapiens, UniProt P07384); assay: Enzymatic calpain inhibition assay; assay type: biochemical; settings: substrate Suc-Leu-Tyr-AMC, read-out: Calp I IC50
T2 construct: purchased Calbiochem
T2 sequence (P07384 1-714): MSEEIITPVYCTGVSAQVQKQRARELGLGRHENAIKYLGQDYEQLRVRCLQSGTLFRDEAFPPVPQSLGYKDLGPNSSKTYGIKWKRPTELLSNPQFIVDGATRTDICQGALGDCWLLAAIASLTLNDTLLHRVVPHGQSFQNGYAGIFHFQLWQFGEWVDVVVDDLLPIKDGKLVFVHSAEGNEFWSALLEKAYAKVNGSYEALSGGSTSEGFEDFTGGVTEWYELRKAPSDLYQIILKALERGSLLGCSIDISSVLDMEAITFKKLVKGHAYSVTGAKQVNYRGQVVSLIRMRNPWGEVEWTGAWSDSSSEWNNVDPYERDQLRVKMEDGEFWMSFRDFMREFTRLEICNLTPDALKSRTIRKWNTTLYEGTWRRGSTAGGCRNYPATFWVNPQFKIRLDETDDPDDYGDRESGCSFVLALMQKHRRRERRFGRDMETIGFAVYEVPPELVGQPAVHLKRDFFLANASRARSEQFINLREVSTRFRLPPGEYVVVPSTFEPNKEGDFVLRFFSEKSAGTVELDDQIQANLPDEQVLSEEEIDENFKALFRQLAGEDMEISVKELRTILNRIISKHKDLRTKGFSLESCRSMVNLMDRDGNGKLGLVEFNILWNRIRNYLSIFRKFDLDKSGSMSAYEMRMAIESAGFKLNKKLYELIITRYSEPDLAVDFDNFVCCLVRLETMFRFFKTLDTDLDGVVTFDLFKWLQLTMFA
T2 sequence (P04632 1-268 partner): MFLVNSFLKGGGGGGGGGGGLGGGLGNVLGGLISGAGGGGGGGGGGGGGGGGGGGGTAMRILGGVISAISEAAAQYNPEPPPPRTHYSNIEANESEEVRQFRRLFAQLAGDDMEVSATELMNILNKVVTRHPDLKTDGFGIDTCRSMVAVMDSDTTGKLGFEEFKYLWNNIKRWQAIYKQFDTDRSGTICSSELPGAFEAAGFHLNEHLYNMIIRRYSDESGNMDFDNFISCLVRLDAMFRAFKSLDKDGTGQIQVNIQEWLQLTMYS
In short: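 Human μ-calpain (0.5 μg) with 250 μM Suc-Leu-Tyr-AMC in 100 mM imidazole pH 7.5, 5 mM cysteine, 5 mM CaCl2. AMC fluorescence (ex 360/em 440 nm) followed 30 min at 30 °C; IC50 determined graphically from initial velocities versus inhibitor concentration.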

IC50 [1] [nM] | IC50 (20S Proteasome) [nM] | IC50 (human μ-calpain) [nM] | SMILES | EC50 [2] [nM] | BSO EC50 [2]
350 | 500 | 60 | CCNC(=O)C(=O)[C@H](Cc1ccc(Cl)cc1)NC(=O)[C@@H](NC(=O)CCCCC1CCSS1)C(C)C (some centres unmarked) [Example 1] | 350 | 
400 | 110 | 100 | CCNC(=O)C(=O)[C@H](Cc1ccc(Cl)cc1)NC(=O)[C@@H](NC(=O)CCCCC1CCCS1)C(C)C (some centres unmarked) [Example 3] | 4000 | 
3000 | 800 | 35 | CCNC(=O)C(=O)[C@H](Cc1ccc(F)cc1)NC(=O)[C@H](CC(C)C)NC(=O)CCCCC1CCSS1 (some centres unmarked) [Example 39] |  | inactive
400 | 450 | 40 | CCNC(=O)C(=O)[C@H](Cc1ccc(F)c(F)c1)NC(=O)[C@H](CC(C)C)NC(=O)CCCCC1CCSS1 (some centres unmarked) [Example 47] |  | 
200 | 180 | 60 | CCNC(=O)C(=O)[C@H](Cc1ccc(Br)cc1)NC(=O)[C@@H](NC(=O)CCCCC1CCSS1)C(C)C (some centres unmarked) [Example 53] | 400 | 
310 | > 1000 | 75 | CC(C)[C@H](NC(=O)CCCCC1CCSS1)C(=O)N[C@@H](Cc1ccc(Br)cc1)C(=O)C(=O)NC1CCCCC1 (some centres unmarked) [Example 57] |  | inactive
1500 | 400 | 15 | CCNC(=O)C(=O)[C@H](Cc1ccc(Br)cc1)NC(=O)[C@H](CC(C)C)NC(=O)CCCCC1CCS[S+]1[O-] (some centres unmarked) [Example 65] | 1000 | 
1200 | > 10000 | 400 | CCNC(=O)C(=O)[C@H](Cc1ccc(OC)cc1)NC(=O)[C@@H](NC(=O)CCCCC1CCC[S+]1[O-])C(C)C (some centres unmarked) [Example 87] | 9000 | 
1000 | 400 | 15 | CCNC(=O)C(=O)[C@H](Cc1ccc(OC)cc1)NC(=O)[C@H](CC(C)C)NC(=O)CCCCC1CCSS1 (some centres unmarked) [Example 94] | 1500 | 
350 | 180 | 70 | CCNC(=O)C(=O)[C@H](Cc1ccc(C)cc1)NC(=O)[C@@H](NC(=O)CCCCC1CCSS1)C(C)C (some centres unmarked) [Example 104] | 300 | 
500 | 280 | 30 | CCNC(=O)C(=O)[C@H](Cc1ccc(C)cc1)NC(=O)[C@H](CC(C)C)NC(=O)CCCCC1CCSS1 (some centres unmarked) [Example 110] | 500 | 
1100 | > 1000 | 75 | CCNC(=O)C(=O)[C@H](Cc1ccc(C(F)(F)F)cc1)NC(=O)[C@H](CC(C)C)NC(=O)CCCCC1CCSS1 (some centres unmarked) [Example 124] | 5000 | 
1800 | > 100000 | 35 | CCNC(=O)C(=O)[C@H](CC1CCCCC1)NC(=O)[C@H](CC(C)C)NC(=O)CCCCC1CCSS1 (some centres unmarked) [Example 151] |  | 
250 | 420 | 46 | CCNC(=O)C(=O)[C@H](Cc1ccc(OC)cc1)NC(=O)[C@@H](NC(=O)c1cccc(NC(=O)CCCCC2CCSS2)c1)C(C)C (some centres unmarked) [Example 197] |  | 
8000 |  | 47 | CCNC(=O)C(=O)[C@H](Cc1ccccc1)NC(=O)[C@@H](NC(=O)CNC(=O)CCCCC1CCSS1)C(C)C (some centres unmarked) [Example 207] | 30000 | 
2500 |  | 60 | CC(C)[C@H](NC(=O)CNC(=O)CCCCC1CCSS1)C(=O)N[C@@H](Cc1ccccc1)C(=O)C(=O)NCc1ccccc1 (some centres unmarked) [Example 209] | > 100000 | 
4500 |  | 40 | CCNC(=O)C(=O)[C@H](Cc1ccccc1)NC(=O)[C@H](CC(C)C)NC(=O)CNC(=O)CCCCC1CCSS1 (some centres unmarked) [Example 210] | 10000 | 
15000 |  | 25 | CCNC(=O)C(=O)[C@H](Cc1ccccc1)NC(=O)[C@H](CC(C)C)NC(=O)CNC(=O)CCCCC1CCS[S+]1[O-] (some centres unmarked) [Example 211] | 4000 | 
